Reference: patent US8114867B2, “Oxazolidinone antibiotic derivatives” (Actelion Pharmaceuticals Ltd, priority 2007, dated 2012)
Values after ≈ are worked out from the molar mass of the structure shown.

Tested on: S. aureus 29213
Assay: MIC by broth microdilution (NCCLS), S. aureus 29213
Format: cell-based
Details: strain S. aureus 29213, cation-adjusted Mueller-Hinton Broth, pH 7.2-7.3; for MIC: Staphylococcus aureus
Description: These assays have been performed following the description given in “Methods for dilution Antimicrobial Susceptibility Tests for Bacteria that Grow Aerobically, 4th ed.; Approved standard: NCCLS Document M7-A4; National Committee for Clinical Laboratory Standards: Villanova, Pa., USA, 1997”. Minimal inhibitory concentrations (MICs; mg/l) were determined in cation-adjusted Mueller-Hinton Broth (BBL) by a microdilution method following NCCLS guidelines (National Committee for Clinical Laboratory Standards. Methods for Dilution Antimicrobial Susceptibility). The pH of the test medium was 7.2-7.3.

Molecule | MIC S. aureus 29213 | MIC
6-((RS)-5-{[(2R,3R)-2,3-dihydroxy-3-(6-methoxy-[1,5]naphthyridin-4-yl)-propylamino]-methyl}-2-oxo-oxazolidin-3-yl)-4H-benzo[1,4]thiazin-3-one and 6-((RS)-5-{[(2S,3S)-2,3-dihydroxy-3-(6-methoxy-[1,5]naphthyridin-4-yl)-propylamino]-methyl}-2-oxo-oxazolidin-3-yl)-4H-benzo[1,4]thiazin-3-one [Example 52] | 0.25 µg/mL | –
COc1ccc2nccc(CC(N)CNC[C@@H]3CN(c4ccc5c(c4)NC(=O)CS5)C(=O)O3)c2n1 (mixture of isomers) [Example 89, 6-((R)-5-{[(2RS)-2-amino-3-(6-methoxy-[1,5]naphthyridin-4-yl)-propylamino]-methyl}-2-oxo-oxazolidin-3-yl)-4H-benzo[1,4]thiazin-3-one] | – | 0.125 µg/mL
COc1ccc2ncc(F)c(CN(CCCC3CN(c4ccc5c(c4)NC(=O)CS5)C(=O)O3)C[C@@H](O)CCl)c2n1 (mixture of isomers) [Example 152, 6-((RS)-5-{3-[((R)-3-chloro-2-hydroxy-propyl)-(3-fluoro-6-methoxy-[1,5]naphthyridin-4-ylmethyl)-amino]-propyl}-2-oxo-oxazolidin-3-yl)-4H-benzo[1,4]thiazin-3-one] | – | ≤ 0.063 µg/mL
COc1ccc2nccc(C(=O)CCCCC3CN(c4ccc5c(c4)OCCO5)C(=O)O3)c2n1 (racemic) [Example 63, rac-3-(2,3-dihydro-benzo[1,4]dioxin-6-yl)-5-[5-(6-methoxy-[1,5]naphthyridin-4-yl)-5-oxo-pentyl]-oxazolidin-2-one] | – | ≤ 0.063 µg/mL
COc1ccc2nccc(CCNCCC3CN(c4ccc5c(c4)OCCO5)C(=O)O3)c2n1 (racemic) [Example 72, (rac)-3-(2,3-dihydro-benzo[1,4]dioxin-6-yl)-5-{2-[2-(6-methoxy-[1,5]naphthyridin-4-yl)-ethylamino]-ethyl}-oxazolidin-2-one] | – | ≤ 0.063 µg/mL
COc1cnc2cccc(CN(C)C(=O)CCC3CN(c4ccc5c(c4)OCCO5)C(=O)O3)c2n1 (racemic) [Example 110, rac-3-[3-(2,3-dihydro-benzo[1,4]dioxin-6-yl)-2-oxo-oxazolidin-5-yl]-N-(3-methoxy-quinoxalin-5-ylmethyl)-N-methyl-propionamide] | – | ≤ 0.063 µg/mL
COc1ccc2nccc(CC[C@@H](N)CC[C@@H]3CN(c4ccc5c(c4)OCCO5)C(=O)O3)c2n1 (racemic) [Example 116, (RS)-5-[(RS)-3-amino-5-(6-methoxy-[1,5]naphthyridin-4-yl)-pentyl]-3-(2,3-dihydro-benzo[1,4]dioxin-6-yl)-oxazolidin-2-one] | – | ≤ 0.063 µg/mL
COc1ccc2nccc(COCCCC3CN(c4ccc5c(c4)OCCO5)C(=O)O3)c2c1 (racemic) [Example 120, rac-3-(2,3-dihydro-benzo[1,4]dioxin-6-yl)-5-[3-(6-methoxy-quinolin-4-ylmethoxy)-propyl]-oxazolidin-2-one] | – | 0.125 µg/mL (≈ 0.277 µM)
COc1ccc2nccc(CC[C@@H](O)CC[C@@H]3CN(c4ccc5c(c4)NC(=O)CS5)C(=O)O3)c2n1 (racemic) [Example 122, 6-{(RS)-5-[(RS)-3-hydroxy-5-(6-methoxy-[1,5]naphthyridin-4-yl)-pentyl]-2-oxo-oxazolidin-3-yl}-4H-benzo[1,4]thiazin-3-one] | – | ≤ 0.063 µg/mL
COc1ccc2nccc(CCC[C@@H](O)C[C@@H]3CN(c4ccc5c(c4)OCCO5)C(=O)O3)c2n1 (racemic) [Example 123, (RS)-3-(2,3-dihydro-benzo[1,4]dioxin-6-yl)-5-[(RS)-2-hydroxy-5-(6-methoxy-[1,5]naphthyridin-4-yl)-pentyl]oxazolidin-2-one] | – | ≤ 0.063 µg/mL
COc1ccc2ncc(F)c(CN(CCCC3CN(c4ccc5c(c4)NC(=O)CS5)C(=O)O3)C[C@@H](O)CN(C)C)c2n1 (mixture of isomers) [Example 153, 6-((RS)-5-{3-[((S)-3-dimethylamino-2-hydroxy-propyl)-(3-fluoro-6-methoxy-[1,5]naphthyridin-4-ylmethyl)-amino]-propyl}-2-oxo-oxazolidin-3-yl)-4H-1-benzo[1,4]thiazin-3-one] | ≦0.063 mg/l | –
O=C1CSc2ccc(N3CC(CCCNCc4cccc5ccccc45)OC3=O)cc2N1 (racemic) [Example 155, rac-6-(5-{3-[(naphthalen-1-ylmethyl)-amino]-propyl}-2-oxo-oxazolidin-3-yl)-4H-benzo[1,4]thiazin-3-one] | – | ≤ 0.063 µg/mL
COC(=O)c1ccc(CNCCCC2CN(c3ccc4c(c3)NC(=O)CS4)C(=O)O2)c2nc(OC)ccc12 (racemic) [Example 156, rac-2-methoxy-8-({3-[2-oxo-3-(3-oxo-3,4-dihydro-2H-benzo[1,4]thiazin-6-yl)-oxazolidin-5-yl]-propylamino}-methyl)-quinoline-5-carboxylic acid methyl ester] | – | ≤ 0.063 µg/mL
COCCOc1ccc(CNCCCC2CN(c3ccc4c(c3)NC(=O)CS4)C(=O)O2)c2nc(OC)cnc12 (racemic) [Example 157, rac-6-[5-(3-{[3-methoxy-8-(2-methoxy-ethoxy)-quinoxalin-5-ylmethyl]-amino}-propyl)-2-oxo-oxazolidin-3-yl]-4H-benzo[1,4]thiazin-3-one] | – | 0.125 µg/mL (≈ 0.226 µM)
COc1cc2ccccc2c(CNCCCC2CN(c3ccc4c(c3)NC(=O)CS4)C(=O)O2)c1OC (racemic) [Example 168, rac-6-(5-{3-[(2,3-dimethoxy-naphthalen-1-ylmethyl)-amino]-propyl}-2-oxo-oxazolidin-3-yl)-4H-benzo[1,4]thiazin-3-one] | – | ≤ 0.063 µg/mL
COc1ccc2c(OC)ccc(CNCCCC3CN(c4ccc5c(c4)NC(=O)CS5)C(=O)O3)c2c1 (racemic) [Example 169, rac-6-(5-{3-[(4,7-dimethoxy-naphthalen-1-ylmethyl)-amino]-propyl}-2-oxo-oxazolidin-3-yl)-4H-benzo[1,4]thiazin-3-one] | – | ≤ 0.063 µg/mL
COC(=O)CCN(CCCC1CN(c2ccc3c(c2)NC(=O)CS3)C(=O)O1)Cc1ccnc2ccc(OC)nc12 (racemic) [Example 171, rac-3-((6-methoxy-[1,5]naphthyridin-4-ylmethyl)-{3-[2-oxo-3-(3-oxo-3,4-dihydro-2H-benzo[1,4]thiazin-6-yl)-oxazolidin-5-yl]-propyl}-amino)-propionic acid methyl ester] | – | ≤ 0.063 µg/mL
COc1cnc2cccc([C@@H](O)CNCC[C@@H]3CN(c4ccc5c(c4)OCCO5)C(=O)O3)c2n1 (relative stereo) [Example 92, (R*)-3-(2,3-dihydro-benzo[1,4]dioxin-6-yl)-5-{2-[(R*)-2-hydroxy-2-(3-methoxy-quinoxalin-5-yl)-ethylamino]-ethyl}-oxazolidin-2-one] | – | 0.125 µg/mL (≈ 0.268 µM)
COc1ccc2nccc(CCNC[C@@H](O)[C@H]3CN(c4ccc5c(c4)OCCO5)C(=O)O3)c2n1 (relative stereo) [Example 97, (R*)-3-(2,3-dihydro-benzo[1,4]dioxin-6-yl)-5-{(R*)-1-hydroxy-2-[2-(6-methoxy-[1,5]naphthyridin-4-yl)-ethylamino]-ethyl}-oxazolidin-2-one] | – | ≤ 0.063 µg/mL
COc1ccc2nccc(CCN(C)C[C@@H](O)[C@H]3CN(c4ccc5c(c4)OCCO5)C(=O)O3)c2n1 (relative stereo) [Example 99, (R*)-3-(2,3-dihydro-benzo[1,4]dioxin-6-yl)-5-((R*)-1-hydroxy-2-{[2-(6-methoxy-[1,5]naphthyridin-4-yl)-ethyl]-methyl-amino}-ethyl)-oxazolidin-2-one] | – | ≤ 0.063 µg/mL
COc1cnc2cccc(C(O)CN(C)C[C@@H](O)[C@H]3CN(c4ccc5c(c4)OCCO5)C(=O)O3)c2n1 (relative stereo) [Example 100, (R*)-3-(2,3-dihydro-benzo[1,4]dioxin-6-yl)-(R*)-5-(1-hydroxy-2-{[(RS)-2-hydroxy-2-(3-methoxy-quinoxalin-5-yl)-ethyl]-methyl-amino}-ethyl)-oxazolidin-2-one] | – | ≤ 0.063 µg/mL
COc1ccc2ncc(F)c(CNCC[C@@H](N)[C@@H]3CN(c4ccc5c(c4)OCCO5)C(=O)O3)c2n1 (relative stereo) [Example 107, (S*)-5-{(R*)-1-amino-3-[(3-fluoro-6-methoxy-[1,5]naphthyridin-4-ylmethyl)-amino]-propyl}-3-(2,3-dihydro-benzo[1,4]dioxin-6-yl)-oxazolidin-2-one] | – | ≤ 0.063 µg/mL
COc1ccc2nccc(CCCC[C@@H](O)[C@H]3CN(c4ccc5c(c4)OCCO5)C(=O)O3)c2n1 (relative stereo) [Example 111, (R*)-3-(2,3-dihydro-benzo[1,4]dioxin-6-yl)-5-[(R*)-1-hydroxy-5-(6-methoxy-[1,5]naphthyridin-4-yl)-pentyl]-oxazolidin-2-one] | – | ≤ 0.063 µg/mL
COc1cnc2cccc(/C=C/C(=O)NC[C@@H]3CN(c4ccc5c(c4)OCCO5)C(=O)O3)c2n1 [Example 5, (E)-N-[(R)-3-(2,3-dihydro-benzo[1,4]dioxin-6-yl)-2-oxo-oxazolidin-5-ylmethyl]-3-(3-methoxy-quinoxalin-5-yl)-acrylamide] | – | ≤ 0.063 µg/mL
CCc1ccc(N2C[C@@H](CN(C)C(=O)/C=C/c3ccnc4ccc(OC)nc34)OC2=O)cc1 [Example 14, (E)-N-[(R)-3-(4-ethyl-phenyl)-2-oxo-oxazolidin-5-ylmethyl]-3-(6-methoxy-[1,5]naphthyridin-4-yl)-N-methyl-acrylamide] | – | ≤ 0.063 µg/mL
N#Cc1ccc2cccc(/C=C/C(=O)NC[C@@H]3CN(c4ccc5c(c4)OCCO5)C(=O)O3)c2n1 [Example 16, (E)-3-(2-cyano-quinolin-8-yl)-N-[(R)-3-(2,3-dihydro-benzo[1,4]dioxin-6-yl)-2-oxo-oxazolidin-5-ylmethyl]-acrylamide] | – | 0.125 µg/mL (≈ 0.274 µM)
COc1ccc2nccc(/C=C/C(=O)N(C)C[C@@H]3CN(c4ccc(Br)c(F)c4)C(=O)O3)c2n1 [Example 22, (E)-N-[(R)-3-(4-bromo-3-fluoro-phenyl)-2-oxo-oxazolidin-5-ylmethyl]-3-(6-methoxy-[1,5]naphthyridin-4-yl)-N-methyl-acrylamide] | – | ≤ 0.063 µg/mL
